Test results from paper PMC12785564, “Targeting Melanin Production: The Safety of Tyrosinase Inhibition” (International Journal of Molecular Sciences, 2025).

Legend:
3T3 [1] = system: 3T3; design: method as in PMID 15598357; settings: same assay; read-out: IC50 for cytotoxicity in 3T3 Neutral Red Uptake (NRU); cited from earlier work
[2] = biotransformation in fresh pig skin; format: in vitro ADME; settings: after 24 h, irrespective of test sample concentration (0.3% and 1.0%)
Experimental: (§1) Metabolism in skin is evident with approx. 50% of Thiamidol degraded in a pig skin assay compared to controls after 24 h, irrespective of test sample concentration. A semiquantitative analysis of the metabolites in the porcine in vitro model is shown in Figure 2, with the primary reactions due to direct glucuronic acid conjugation (phase II metabolism) at one of the free hydroxyl groups. Further degradation products could be attributed to a combination of phase I and phase II metabolism, i.e., hydroxylation and methylation.
(§2) A biotransformation study analyzed the degradation of Thiamidol in fresh pig skin at room temperature after 24 h exposure. A solution of 0.3% and 1.0% was prepared in 2-proanol. From this, about 25 µL of test solution was placed in three vials with 2.5 g of skin, as well as controls without skin or containing skin only. All samples were mixed with 0.5 mL of water, shaken and left open. Determination of the content of the test sample was carried out in parallel. After 24 h incubation, the samples were mixed with 2 mL of acetonitrile, placed in an ultrasonic bath for 10 min (resulting in a stop to any metabolic reactions) and extracted with 50% methanol, then shaken well and placed in an ultrasonic bath and filtered. Metabolites were then identified using liquid chromatography coupled with mass spectroscopy. […]

3T3 [3] = assay: 3T3 Neutral Red Uptake (NRU) cytotoxicity / phototoxicity, OECD TG 432; format: cell-based; settings: presence of UV light
Source text: (§3) From established in vitro guideline studies, potential genotoxicity and toxic effects at a cellular level can be elucidated. This can be complemented with a weight-of-evidence of any observed indicators of cytotoxicity in multiple assays. For instance, the 3T3 Neutral Red Uptake (NRU) assay, which was initially developed for phototoxicity, can provide an indication for local toxicity in the absence of UV light.
(§4) Thiamidol used for testing was sourced from Alzchem Group AG (Trostberg, Germany) with a purity of 99% w/w. For standard toxicological endpoints of skin irritation, phototoxicity and genotoxicity, in vitro studies were performed following equivalent methods to those described in the corresponding OECD Testing Guidelines: OECD Test Guideline No. 431 (In Vitro Skin Corrosion: Human Skin Model Test); OECD Test Guideline No. 439 (In Vitro Skin Irritation: Reconstructed Human Epidermis Test Method); OECD Test Guideline No. 432 (In Vitro 3T3 NRU Phototoxicity Test); OECD Test Guideline No. 471 (Bacterial Reverse Mutation Assay); OECD Test Guideline No. 487 (in vitro Mammalian Cell Micronucleus Test); and OECD Test Guideline No. 476 (in vitro Mammalian Cell Gene Mutation Test).

[4] = as above; format: cell-based; settings: mouse, 3T3 cells; absence of UV light; Beiersdorf internal report; read-out: NR50 (IC50 for neural uptake), cytotoxicity in 3T3 NRU
Source text: as §3, §4

COX2 = target: T1, COX2 (Homo sapiens, UniProt P35354); assay: SAFETYscan COX2 enzymatic inhibition; format: biochemical; settings: 0.1 µM to 10 µM tested
T1 construct: purchased Eurofins Discovery (San Diego, CA, USA), SAFETYscan E/IC50 SELECT service
T1 sequence (P35354 18-604): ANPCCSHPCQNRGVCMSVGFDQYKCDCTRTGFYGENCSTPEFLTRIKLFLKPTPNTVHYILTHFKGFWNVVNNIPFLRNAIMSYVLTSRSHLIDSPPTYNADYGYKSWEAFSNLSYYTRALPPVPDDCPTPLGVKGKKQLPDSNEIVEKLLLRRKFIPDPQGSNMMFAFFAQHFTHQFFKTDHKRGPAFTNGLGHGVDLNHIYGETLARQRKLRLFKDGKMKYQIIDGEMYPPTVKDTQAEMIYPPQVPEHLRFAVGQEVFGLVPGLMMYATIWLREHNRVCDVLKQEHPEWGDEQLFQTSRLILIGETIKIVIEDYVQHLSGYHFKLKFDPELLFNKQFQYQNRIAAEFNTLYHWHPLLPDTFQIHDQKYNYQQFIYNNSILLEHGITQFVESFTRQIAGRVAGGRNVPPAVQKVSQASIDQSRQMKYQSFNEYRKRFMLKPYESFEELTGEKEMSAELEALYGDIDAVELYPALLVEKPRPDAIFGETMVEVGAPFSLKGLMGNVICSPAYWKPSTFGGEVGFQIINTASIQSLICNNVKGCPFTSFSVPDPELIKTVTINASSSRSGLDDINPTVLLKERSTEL
Experimental: (§5) Pharmacological profiling was performed with the SAFETYscan^TM E/IC50 SELECT service provided by Eurofins Discovery (San Diego, CA, USA), based on the findings of in vitro assays used in pharmaceutical companies. Increasing concentrations of Thiamidol (0.1 µM to 10 µM) were tested against various ion channels, and a total of seventy-eight assays performed utilizing various output reads, including GPCR cAMP modulation, calcium mobilization, nuclear hormone receptor interactions, KINOMEscan binding, ion channel interactions, transporter interactions and enzymatic reactions. Methods are available online via Eurofins Discovery in the format of a sample report.

[5] = substrate depletion in human hepatocytes; format: in vitro ADME; settings: 5 μM, 37 °C, over 240 min
Experimental: as §1
as §2, with “filtered.” for “filtered. Metabolites were then identified using liquid chromatography coupled with mass spectroscopy.”
The in vitro intrinsic clearances and half-life readouts were expressed as µL/min/10^6 cells and in minutes, respectively. […]

[6] = target: T2, monoamine oxidase A (MOAO) (Homo sapiens, UniProt P21397); assay: SAFETYscan monoamine oxidase A enzymatic inhibition; format: biochemical; settings: 0.1 µM to 10 µM tested
T2 construct: purchased Eurofins Discovery (San Diego, CA, USA), SAFETYscan E/IC50 SELECT service
T2 sequence (P21397 1-527): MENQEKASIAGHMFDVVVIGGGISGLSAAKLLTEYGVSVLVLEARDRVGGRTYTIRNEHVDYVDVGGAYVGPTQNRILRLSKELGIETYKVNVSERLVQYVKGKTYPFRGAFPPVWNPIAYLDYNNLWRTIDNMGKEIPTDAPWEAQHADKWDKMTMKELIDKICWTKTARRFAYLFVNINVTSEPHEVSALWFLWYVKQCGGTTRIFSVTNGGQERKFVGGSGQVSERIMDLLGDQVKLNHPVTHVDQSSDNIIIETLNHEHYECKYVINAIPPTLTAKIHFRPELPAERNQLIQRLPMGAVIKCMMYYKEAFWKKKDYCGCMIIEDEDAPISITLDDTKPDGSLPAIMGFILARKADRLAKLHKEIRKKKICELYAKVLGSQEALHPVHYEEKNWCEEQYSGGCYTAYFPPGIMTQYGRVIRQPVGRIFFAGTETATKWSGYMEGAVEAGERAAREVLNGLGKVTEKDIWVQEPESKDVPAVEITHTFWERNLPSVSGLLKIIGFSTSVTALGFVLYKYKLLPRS
Experimental: as §5

[7] = system: reconstructed human epidermis; assay: in vitro skin corrosion / skin irritation, OECD TG 431 and 439 (human skin model, reconstructed human epidermis); format: cell-based; settings: non-animal OECD methods
Source text: These are amongst the first and most established non-animal methods adopted by the Organisation for Economic Co-operation and Development. Clinical skin tolerability studies for the final formulation containing Thiamidol provide confirmatory evidence but also information about consumer sensory experiences.
as §4

hyperpigmentation = settings: cited from earlier work
[8] = target: T3, norepinephrine transport (NET) (Homo sapiens, UniProt P23975); assay: SAFETYscan NET assay; format: biochemical; settings: 0.1 µM to 10 µM tested
T3 construct: purchased Eurofins Discovery (San Diego, CA, USA), SAFETYscan E/IC50 SELECT service
Experimental: as §5

COX1 = target: T4, COX1 (Homo sapiens, UniProt P23219); assay: SAFETYscan COX1 enzymatic inhibition; format: biochemical; settings: 0.1 µM to 10 µM tested
T4 construct: purchased Eurofins Discovery (San Diego, CA, USA), SAFETYscan E/IC50 SELECT service
Experimental: as §5

[9] = target: recombinant human tyrosinase (hTyr); design: method as in PMID 29427586; settings: read-out: half-maximal inhibitory concentration (IC50) for hTyr; cited from earlier work
dopamine transport (DAT) = target: T5, dopamine transport (DAT) (Homo sapiens, UniProt Q01959); assay: SAFETYscan DAT assay; format: biochemical; settings: 0.1 µM to 10 µM tested
T5 construct: purchased Eurofins Discovery (San Diego, CA, USA), SAFETYscan E/IC50 SELECT service
Experimental: as §5

T4 sequence (P23219 24-599): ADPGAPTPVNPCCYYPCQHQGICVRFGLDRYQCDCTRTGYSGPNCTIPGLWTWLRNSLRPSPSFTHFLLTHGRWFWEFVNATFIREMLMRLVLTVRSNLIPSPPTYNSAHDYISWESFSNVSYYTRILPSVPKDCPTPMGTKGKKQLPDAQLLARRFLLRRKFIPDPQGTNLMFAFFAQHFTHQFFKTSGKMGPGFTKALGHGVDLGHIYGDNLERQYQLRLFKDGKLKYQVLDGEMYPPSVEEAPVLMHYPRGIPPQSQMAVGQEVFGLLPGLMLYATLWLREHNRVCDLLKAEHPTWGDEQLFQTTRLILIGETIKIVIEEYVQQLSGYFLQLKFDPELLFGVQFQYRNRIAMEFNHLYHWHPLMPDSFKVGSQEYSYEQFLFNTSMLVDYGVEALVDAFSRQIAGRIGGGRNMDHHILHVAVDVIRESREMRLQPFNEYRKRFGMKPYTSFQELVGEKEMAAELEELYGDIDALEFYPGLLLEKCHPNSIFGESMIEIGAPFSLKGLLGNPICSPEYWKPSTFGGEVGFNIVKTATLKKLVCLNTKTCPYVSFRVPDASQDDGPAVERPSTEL
T3 sequence (P23975 whole entry): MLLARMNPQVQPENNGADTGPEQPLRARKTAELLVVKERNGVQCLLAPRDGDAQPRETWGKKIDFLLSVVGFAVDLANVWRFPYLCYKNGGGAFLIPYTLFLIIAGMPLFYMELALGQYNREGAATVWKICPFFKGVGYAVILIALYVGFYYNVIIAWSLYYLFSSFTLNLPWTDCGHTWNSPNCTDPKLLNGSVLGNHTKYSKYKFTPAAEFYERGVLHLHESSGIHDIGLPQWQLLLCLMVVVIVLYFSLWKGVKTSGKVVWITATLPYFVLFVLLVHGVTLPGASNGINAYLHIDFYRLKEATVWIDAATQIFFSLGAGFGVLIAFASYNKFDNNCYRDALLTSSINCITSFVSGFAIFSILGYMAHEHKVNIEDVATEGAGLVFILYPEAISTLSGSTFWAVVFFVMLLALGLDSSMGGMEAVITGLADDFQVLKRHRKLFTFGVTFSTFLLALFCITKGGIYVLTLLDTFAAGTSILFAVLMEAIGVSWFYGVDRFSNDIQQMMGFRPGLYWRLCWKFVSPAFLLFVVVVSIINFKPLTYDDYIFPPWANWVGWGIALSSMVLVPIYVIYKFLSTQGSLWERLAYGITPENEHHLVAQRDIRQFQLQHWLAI
T5 sequence (Q01959 whole entry): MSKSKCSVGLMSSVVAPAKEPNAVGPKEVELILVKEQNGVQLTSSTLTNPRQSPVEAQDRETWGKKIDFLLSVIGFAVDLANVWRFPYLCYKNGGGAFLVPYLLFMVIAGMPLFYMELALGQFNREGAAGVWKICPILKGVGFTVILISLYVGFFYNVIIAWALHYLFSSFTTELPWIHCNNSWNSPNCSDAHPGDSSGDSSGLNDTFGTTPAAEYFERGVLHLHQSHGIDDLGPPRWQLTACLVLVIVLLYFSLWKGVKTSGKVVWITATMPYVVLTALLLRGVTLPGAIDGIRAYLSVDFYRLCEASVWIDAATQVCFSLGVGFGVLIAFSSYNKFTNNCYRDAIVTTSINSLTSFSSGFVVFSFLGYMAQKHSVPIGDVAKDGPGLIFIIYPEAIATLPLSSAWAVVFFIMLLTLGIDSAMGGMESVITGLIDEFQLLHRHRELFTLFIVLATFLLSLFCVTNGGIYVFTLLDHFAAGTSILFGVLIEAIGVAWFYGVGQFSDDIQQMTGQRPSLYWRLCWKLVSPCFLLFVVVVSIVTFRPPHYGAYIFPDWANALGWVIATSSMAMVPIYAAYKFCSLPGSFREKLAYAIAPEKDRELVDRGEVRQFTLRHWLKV

## Oc1cccc(O)c1 [resorcinol, 1,3-benzenediol]
3T3 [1]
  IC50: 17300 nM

## CC(C)C(=O)Nc1nc(-c2ccc(O)cc2O)cs1 [Thiamidol, isobutylamido thiazolyl resorcinol]
[2]
  degraded in pig skin assay compared to controls: approx. 50%
3T3 [3]
  phototoxicity: distinction of NR50 in the presence of UV light: no biologically significant distinction
[4]
  IC50: 136000 nM
COX2
  IC50: > 1000 nM
[5]
  in vitro half-life in human hepatocytes: in the minute range
[6]
  IC50: > 1000 nM
[7]
  skin corrosion and irritation category: not categorized as corrosive or irritating to the skin
hyperpigmentation; Thiamidol formulations, diverse skin- and phototypes
  adverse effects in clinical studies: no significant adverse effects
hyperpigmentation; UV-induced solar lentigines, melasma, acne- and laser-induced PIH
  effect on hyperpigmentation in clinical studies: effectively reduces hyperpigmentation
[8]
  IC50: 360 nM
COX1
  IC50: > 1000 nM
[9]
  IC50: 1100 nM
Dopamine transport (DAT)
  IC50: > 1000 nM

## Oc1ccccc1O [catechol]
3T3 [1]
  IC50: 100 nM

## Oc1ccc(O)cc1 [hydroquinone]
3T3 [1]
  IC50: 12900 nM
